Laboratory results taken from ChEMBL document CHEMBL1201862, “PubChem BioAssay data set” (2004).
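Following 48 hours of exposure in 96-well plates, responses at five concentrations were used to interpolate endpoints linearly. GI50: concentration for 50% inhibition of growth.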 The source made the active and inactive calls. Cut-off read from the data, not from the text of the source: active = GI50 up to about 1.1 µM and inactive = higher.

Tests used:
Test in all cases: DTP human tumour cell line panel, 48 h
[1] = tested on: RXF 393
[2] = tested on: A549
[3] = tested on: SK-OV-3
[4] = tested on: CCRF-CEM
[5] = tested on: HCC 2998
[6] = tested on: A498
[7] = tested on: Malme-3M
[8] = tested on: MDA-MB-435
[9] = tested on: NCI/ADR-RES
[10] = tested on: NCI-H23
[11] = tested on: NCI-H226
[12] = tested on: TK-10
[13] = tested on: SK-MEL-2
[14] = tested on: MDA-MB-231
[15] = tested on: 786-0
[16] = tested on: MOLT-4
[17] = tested on: OVCAR-5
[18] = tested on: SK-MEL-5
[19] = tested on: M14
[20] = tested on: SNB-75

Measured: GI50

CCCSc1cc(Cl)c(C)cc1S(=O)(=O)n1ccnc1OCCCN(C)C
inactive: [1] > 100 µM | [2] > 100 µM | [3] > 100 µM | [4] > 100 µM | [5] > 100 µM | [6] > 100 µM | [7] > 100 µM | [8] > 100 µM | [9] > 100 µM | [10] > 100 µM | [11] > 100 µM | [12] > 100 µM | [13] > 100 µM | [14] > 100 µM | [15] > 100 µM | [16] > 100 µM | [17] > 100 µM | [18] > 100 µM | [19] > 100 µM

CO/C(=C/C(=O)C(Cl)(Cl)Cl)CC/C(=C\C(=O)C(Cl)(Cl)Cl)OC
inactive: [1] 17.5 µM | [2] 47.4 µM | [3] 30.4 µM | [4] 24.3 µM | [6] 35.3 µM | [7] 23 µM | [8] 19.8 µM | [20] 40.6 µM | [9] 29.5 µM | [10] 22.4 µM | [12] 30.8 µM | [13] 32.4 µM | [14] 42.2 µM | [15] 22.3 µM | [16] 21.4 µM | [17] 27.8 µM | [18] 34.2 µM | [19] 28.2 µM

Cc1ccc([S+]([O-])c2sccc2C=O)cc1 (centres undefined)
inactive: [1] 56.9 µM | [2] > 100 µM | [3] > 100 µM | [4] 20 µM | [5] 32.7 µM | [6] > 100 µM | [7] 23.4 µM | [8] 24.7 µM | [20] 33.9 µM | [9] 26.5 µM | [10] 30.8 µM | [12] > 100 µM | [13] 43.6 µM | [14] 26.4 µM | [15] 32.1 µM | [16] 21.3 µM | [17] 49.2 µM | [18] 29.1 µM | [19] 20 µM

CC(=O)C1(Cc2cccc3ccccc23)S(=O)(=O)OCCOS1(=O)=O
inactive: [1] 12.7 µM | [3] 2.72 µM | [4] 38.7 µM | [5] 17.3 µM | [6] 19 µM | [7] 17.3 µM | [8] 14.7 µM | [20] 35.4 µM | [9] 21.8 µM | [10] 22.9 µM | [11] 16.8 µM | [12] 17.3 µM | [14] 15.8 µM | [15] 23.5 µM | [16] 29.1 µM | [17] 17.6 µM | [18] 12.2 µM | [19] 23.4 µM

Cc1ccc(C(=O)N/N=C(\N=N\c2ccccc2)c2ccc(N(CCC#N)CCC#N)cc2C)cc1
inactive: [1] 38.9 µM | [2] > 100 µM | [3] 74 µM | [4] > 100 µM | [5] > 100 µM | [6] > 100 µM | [8] 45.6 µM | [20] 34 µM | [9] > 100 µM | [10] 85.7 µM | [11] 54.8 µM | [12] 51.1 µM | [13] 69.8 µM | [14] > 100 µM | [16] > 100 µM | [17] > 100 µM | [18] 31.8 µM | [19] > 100 µM

COC(=O)C[C@H](COCc1ccccc1)NC(=O)C[C@H](COCc1ccccc1)NC(=O)C[C@H](COCc1ccccc1)NC(=O)OC(C)(C)C
inactive: [1] 20.9 µM | [2] 38.5 µM | [3] 60.8 µM | [4] > 100 µM | [6] 24 µM | [7] > 100 µM | [8] 32.8 µM | [20] 13.1 µM | [9] > 100 µM | [10] > 100 µM | [11] > 100 µM | [13] > 100 µM | [14] 81.8 µM | [15] 18 µM | [16] > 100 µM | [17] > 100 µM | [18] > 100 µM | [19] 54.6 µM

CSc1c(C#N)c(O)n(-c2ccc(C)cc2)c(=O)c1C#N
inactive: [1] > 100 µM | [2] > 100 µM | [3] > 100 µM | [5] > 100 µM | [6] > 100 µM | [7] > 100 µM | [8] > 100 µM | [20] > 100 µM | [9] > 100 µM | [10] > 100 µM | [11] > 100 µM | [12] > 100 µM | [13] > 100 µM | [14] > 100 µM | [15] > 100 µM | [16] > 100 µM | [17] > 100 µM | [18] > 100 µM | [19] > 100 µM

CCN(CC)CCOC(NC(C)=O)(c1ccccc1)c1ccccc1
inactive: [1] > 100 µM | [2] > 100 µM | [3] > 100 µM | [4] > 100 µM | [5] > 100 µM | [6] > 100 µM | [7] > 100 µM | [8] > 100 µM | [20] > 100 µM | [9] > 100 µM | [10] > 100 µM | [11] > 100 µM | [12] > 100 µM | [14] > 100 µM | [15] > 100 µM | [16] > 100 µM | [17] > 100 µM | [18] > 100 µM | [19] > 100 µM

COC(=O)c1c2c(cc3c1CC1(C3)Cc3cc4c(c(C(=O)OC)c3C1)CCC4)CCC2
inactive: [1] > 100 µM | [2] > 100 µM | [3] > 100 µM | [4] 98.9 µM | [5] > 100 µM | [6] > 100 µM | [7] > 100 µM | [8] > 100 µM | [9] > 100 µM | [10] > 100 µM | [11] > 100 µM | [12] > 100 µM | [13] > 100 µM | [14] > 100 µM | [15] > 100 µM | [16] > 100 µM | [17] > 100 µM | [18] > 100 µM | [19] > 100 µM

O=C(NCCN(CCNC(=O)c1cccc(=O)n1O)CCN(CCNC(=O)c1cccc(=O)n1O)CCNC(=O)c1cccc(=O)n1O)c1cccc(=O)n1O
inactive: [1] > 100 µM | [2] > 100 µM | [3] > 100 µM | [4] > 100 µM | [5] > 100 µM | [6] > 100 µM | [7] 60.8 µM | [8] > 100 µM | [20] > 100 µM | [9] > 100 µM | [10] > 100 µM | [11] > 100 µM | [12] > 100 µM | [13] > 100 µM | [14] > 100 µM | [15] > 100 µM | [17] > 100 µM | [18] > 100 µM | [19] > 100 µM

CC(=O)OC[C@@]12Cc3ccc(C)c(O)c3[C@]1(C)[C@@H](OC(C)=O)[C@]1(O)[C@H]([C@@H](OC(=O)c3ccccc3)[C@@H](C)[C@H]1OC(C)=O)[C@H]2OC(C)=O
inactive: [1] > 50 µM | [3] > 50 µM | [4] > 50 µM | [5] 22 µM | [6] > 50 µM | [8] > 50 µM | [20] 16.4 µM | [9] > 50 µM | [10] > 50 µM | [11] > 50 µM | [12] > 50 µM | [13] > 50 µM | [14] > 50 µM | [15] > 50 µM | [16] > 50 µM | [17] > 50 µM | [18] > 50 µM | [19] > 50 µM

Nc1nc(Cl)cc(NC2(CO)CCC2)n1
inactive: [1] > 100 µM | [2] > 100 µM | [4] > 100 µM | [5] > 100 µM | [6] > 100 µM | [7] > 100 µM | [8] > 100 µM | [20] > 100 µM | [9] > 100 µM | [10] > 100 µM | [11] > 100 µM | [12] > 100 µM | [13] > 100 µM | [14] > 100 µM | [15] > 100 µM | [16] > 100 µM | [17] > 100 µM | [18] > 100 µM

CC1(C)C=Cc2c(cc3oc4ccc5c(c4c(=O)c3c2O)C=CC(C)(C)O5)O1
inactive: [1] > 100 µM | [2] > 100 µM | [3] > 100 µM | [4] > 100 µM | [5] > 100 µM | [6] > 100 µM | [7] > 100 µM | [8] > 100 µM | [9] > 100 µM | [10] > 100 µM | [11] > 100 µM | [12] > 100 µM | [13] > 100 µM | [14] > 100 µM | [15] > 100 µM | [16] > 100 µM | [17] > 100 µM | [18] > 100 µM | [19] > 100 µM

O=C(NNC(=O)c1ccncc1)c1ccncc1
inactive: [1] > 100 µM | [2] > 100 µM | [3] > 100 µM | [4] > 100 µM | [6] > 100 µM | [7] > 100 µM | [8] > 100 µM | [20] > 100 µM | [9] > 100 µM | [10] > 100 µM | [12] > 100 µM | [13] > 100 µM | [14] > 100 µM | [15] > 100 µM | [16] > 100 µM | [17] > 100 µM | [18] > 100 µM | [19] > 100 µM
